Results: patent US6740494B2, “Nuclear matrix protein fluid assay” (Matritech, Inc., priority 1991, dated 2004)

Tested on: MCF7 cells
Assay: Cytotoxic reagent assay: Doxorubicin, MTT live cells and 41/7 ELISA
Format: cell-based
Settings: 450 nM, 1-96 hours, MCF7, FIG. 7
Experimental: 2. In this experiment, the effect of a known cancer chemotherapeutic agent (Doxorubicin, Sigma Inc.) on soluble nuclear matrix protein release into extracellular fluid was assessed.
A standard curve for live cells was established with MCF7 cells (breast carcinoma, adherent). Cells were seeded into 6 well plates in 2 mls of DME complete (5% FCS+SerXtend) with 0.5 micrograms/ml mitomycin C (Sigma, Inc., Cincinnati) to prevent any cell growth.
After incubating overnight at 37° C., 200 μl of 3-[4, 5 Dimethylthiazol-2-4] 2, 5-dipheny(tetrazoluim bromide), MTT, stock solution (5 mg/ml MTT in phosphate-buffered saline, Sigma, Inc.) were added to each well. After the plates were incubated for four hours at 37° C. and 5% CO2 the supernatants were aspirated off and 4 mls of DMSO (dimethyl sulfoxide) were added to solubilize remaining crystals. This was drawn off and the absorbance was read in the spectrophotometer at 562 nm against a blank of straight DMSO.
Cells were treated with Doxorubicin as follows: MCF7 cells were seeded into 6 well plates at a density of 1.3×10^5 cells/well in 2 mls DME complete. […]
At 1, 24, 48, 72, and 96 hours, the supernatants were removed and frozen at −20° C. to assay later. After replacing the supernatant with a fresh 2 ml of DME complete, the number of live cells was determined using the same procedure as for the standard curve. […]

For `COc1cccc2c1C(=O)c1c(O)c3c(c(O)c1C2=O)C[C@@](O)(C(=O)CO)C[C@@H]3O[C@H]1C[C@H](N)[C@H](O)[C@H](C)O1` [Doxorubicin], which “cell viability (MTT live cells) versus nuclear matrix protein released (41/7 ELISA)” value is on record?
The value was “inversely related to nuclear matrix protein released”.
